Nine compounds from patent US20250032623A1, “HETEROBIFUNCTIONAL COMPOUNDS AND THEIR USE IN TREATING DISEASE” (HALDA THERAPEUTICS OPCO, INC., priority 2021, published 2025) can be followed below.

Like-named read-outs stand apart in the source and are kept apart here. Bounds are passed on as bounds.

For assay [1], the target named is T1, EGFR T790M, L858R (amino acids 669-1011 Accession Number NP_005219.2) (Homo sapiens, UniProt P00533, L858R/T790M).
T1 construct: purchased Eurofins Discovery; host or cells: mammalian cells (HEK-293)
The assay can be described thus: KdELECT binding assay (Eurofins Discovery), EGFR T790M, L858R. The conditions noted are these: read-out: EGFR DM Kd. Here is the method: (§1) Exemplary compounds were tested for ability to bind to EGFR WT (amino acids 669-1011, Accession Number NP_005219.2) or EGFR T790M, L858R (amino acids 669-1011 Accession Number NP_005219.2) expressed from bacteria or mammalian cells, respectively. Compounds were tested using the KdELECT assay at Eurofins Discovery.
(§2) Kinase-tagged T7 phage strains were prepared in an E. coli host derived from the BL21 strain. E. coli were grown to log-phase and infected with T7 phage and incubated with shaking at 32° C. until lysis. The lysates were centrifuged and filtered to remove cell debris. The remaining kinases were produced in HEK-293 cells and subsequently tagged with DNA for qPCR detection. Streptavidin-coated magnetic beads were treated with biotinylated small molecule ligands for 30 minutes at room temperature to generate affinity resins for kinase assays. The liganded beads were blocked with excess biotin and washed with blocking buffer (SeaBlock (Pierce), 1% BSA, 0.05% Tween 20, 1 mM DTT) to remove unbound ligand and to reduce non-specific binding. Binding reactions were assembled by combining kinases, liganded affinity beads, and test compounds in 1× binding buffer (20% SeaBlock, 0.17×PBS, 0.05% Tween 20, 6 mM DTT). Test compounds were prepared as 111× stocks in 100% DMSO. Kd values were determined using an 11-point 3-fold compound dilution series with three DMSO control points. All compounds for Kd measurements are distributed by acoustic transfer (non-contact dispensing) in 100% DMSO. The compounds were then diluted directly into the assays such that the final concentration of DMSO was 0.9%. All reactions performed in polypropylene 384-well plate. Each was a final volume of 0.02 mL. The assay plates were incubated at room temperature with shaking for 1 hour and the affinity beads were washed with wash buffer (1× PBS, 0.05% Tween 20). The beads were then re-suspended in elution buffer (1× PBS, 0.05% Tween 20, 0.5 μM nonbiotinylated affinity ligand) and incubated at room temperature with shaking for 30 minutes. The kinase concentration in the eluates was measured by qPCR.

Assay [2] addresses T2, EGFR WT (amino acids 669-1011, Accession Number NP_005219.2) (Homo sapiens, UniProt P00533).
T2 construct: purchased Eurofins Discovery; host or cells: bacteria (E. coli, BL21-derived, T7 phage)
The assay is described as follows: KdELECT binding assay (Eurofins Discovery), EGFR WT. As for the experimental part:
as §1, §2

The next assay concerns the target T3, EGFR (Homo sapiens, UniProt P00533).
T3 construct: purchased
The assay is described as follows: KdELECT binding assay, EGFR. As for the experimental part: Exemplary compounds were tested for ability to bind to EGFR.
as §2, with “Compounds were tested using a KdELECT assay. Kinase-tagged” for “Kinase-tagged”

For the next assay, the system named is HEK293 cells. The assay is described as follows: Cellular growth inhibition assay (CellTiter-Glo), HEK293 cells. The format is cell-based. The conditions noted are these: three days compound treatment, CellTiter-Glo 2.0, read-out: CTG HEK293 GI50. Here is the method:
(§3) Exemplary compounds were tested for ability to inhibit the proliferation of HEK293 cells or HeLa cells.
(§4) HEK293 and HeLa cells were cultured in DMEM medium supplemented with 10% fetal bovine serum and 1% Penn/Strep. Cells were seeded in white 384-well plates at 500 cells/well in […] complete medium. Following seeding, plates were spun at 300×g for three minutes and cultured at 37° C. with 5% CO2 in a humidified tissue culture incubator.
(§5) After 24 hours, compounds were titrated in 100% DMSO and diluted in complete cell culture medium. […] of compound/media mixture was added to cells to bring total volume in well to […]. DMSO alone was used as a negative control. P lates were then spun at 300×g for three minutes and stored at 37° C. with 5% CO2 for three days.
(§6) On Day 0 and Day 3 of compound treatment, cell viability was quantified with CellTiter-Glo 2.0 reagent (Promega). After equilibrating microplates at room temperature for 30 minutes, 25 μL CellTiter-Glo 2.0 reagent was dispensed into each well to bring total volume to […]. Plates were mixed on shaker for 2 minutes at 500 rpm, followed by a 10-minute incubation at room temperature. Following a quick spin, luminescence readings were measured with an EnVision Plate Reader. Data was normalized to DMSO treated Day 0 and Day 3 readings. A four-parameter non-linear regression curve fit was applied to dose-response data in GraphPad Prism data analysis software to determine the half maximal growth inhibitory concentration (GI50) for each compound.
In general terms: ATP-based viability assays read luminescence as a measure of living cells.

The subject of a further assay is HeLa cells. The assay is described as follows: Cellular growth inhibition assay (CellTiter-Glo), HeLa cells. Conditions: three days compound treatment, CellTiter-Glo 2.0, read-out: CTG HELA GI50. Format: cell-based. Here is the method:
as §3, §4, §5, §6

T2 sequence (P00533 669-1011): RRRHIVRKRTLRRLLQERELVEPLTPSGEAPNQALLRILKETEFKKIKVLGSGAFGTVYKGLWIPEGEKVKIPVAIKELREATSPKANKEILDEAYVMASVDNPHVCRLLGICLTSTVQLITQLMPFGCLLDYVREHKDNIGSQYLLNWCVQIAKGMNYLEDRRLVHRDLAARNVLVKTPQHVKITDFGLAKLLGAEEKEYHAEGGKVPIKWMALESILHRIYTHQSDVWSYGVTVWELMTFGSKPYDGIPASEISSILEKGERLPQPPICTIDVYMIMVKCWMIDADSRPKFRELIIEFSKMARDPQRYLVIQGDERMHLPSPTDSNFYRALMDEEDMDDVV
T3 sequence (P00533 25-1210): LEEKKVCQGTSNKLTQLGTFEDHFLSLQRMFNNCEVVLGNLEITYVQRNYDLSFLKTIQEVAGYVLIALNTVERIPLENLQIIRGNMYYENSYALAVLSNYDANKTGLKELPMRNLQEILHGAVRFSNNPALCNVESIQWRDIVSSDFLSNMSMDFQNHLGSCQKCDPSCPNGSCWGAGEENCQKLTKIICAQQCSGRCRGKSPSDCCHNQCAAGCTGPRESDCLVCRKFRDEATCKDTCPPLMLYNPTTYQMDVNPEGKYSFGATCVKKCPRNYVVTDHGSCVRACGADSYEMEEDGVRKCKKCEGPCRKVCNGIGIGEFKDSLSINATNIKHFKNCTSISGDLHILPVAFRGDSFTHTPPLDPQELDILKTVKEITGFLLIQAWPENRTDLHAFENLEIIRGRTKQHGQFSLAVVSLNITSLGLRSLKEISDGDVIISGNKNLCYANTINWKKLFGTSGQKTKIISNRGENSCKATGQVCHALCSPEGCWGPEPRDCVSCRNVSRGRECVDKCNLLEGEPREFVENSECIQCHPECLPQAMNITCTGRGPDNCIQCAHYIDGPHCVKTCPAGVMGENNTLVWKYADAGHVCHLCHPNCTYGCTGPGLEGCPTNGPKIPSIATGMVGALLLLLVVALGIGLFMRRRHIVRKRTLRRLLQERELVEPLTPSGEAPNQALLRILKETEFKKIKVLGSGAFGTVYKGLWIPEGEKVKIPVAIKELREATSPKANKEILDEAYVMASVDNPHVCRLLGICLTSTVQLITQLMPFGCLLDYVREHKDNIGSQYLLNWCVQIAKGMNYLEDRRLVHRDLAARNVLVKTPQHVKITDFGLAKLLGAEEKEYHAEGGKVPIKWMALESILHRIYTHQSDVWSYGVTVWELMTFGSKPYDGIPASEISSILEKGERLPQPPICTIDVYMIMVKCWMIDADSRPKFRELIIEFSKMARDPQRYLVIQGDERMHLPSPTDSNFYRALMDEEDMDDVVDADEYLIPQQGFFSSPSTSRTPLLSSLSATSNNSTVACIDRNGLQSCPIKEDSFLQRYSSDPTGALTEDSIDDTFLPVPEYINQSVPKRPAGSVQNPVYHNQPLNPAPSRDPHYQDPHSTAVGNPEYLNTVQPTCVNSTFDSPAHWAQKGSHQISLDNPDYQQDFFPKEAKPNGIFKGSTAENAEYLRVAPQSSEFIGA
T1 sequence (P00533 669-1011 T790M/L858R): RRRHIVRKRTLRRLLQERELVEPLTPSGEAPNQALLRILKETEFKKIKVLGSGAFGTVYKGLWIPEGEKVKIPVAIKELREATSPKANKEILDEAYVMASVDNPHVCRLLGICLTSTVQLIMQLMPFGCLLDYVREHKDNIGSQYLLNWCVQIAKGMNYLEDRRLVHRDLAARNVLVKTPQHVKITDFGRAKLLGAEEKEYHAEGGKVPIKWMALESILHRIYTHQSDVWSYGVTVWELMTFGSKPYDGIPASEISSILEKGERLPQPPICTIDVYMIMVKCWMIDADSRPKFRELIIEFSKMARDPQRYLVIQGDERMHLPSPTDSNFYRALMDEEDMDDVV

In the case of `C=CC(=O)Nc1cc(Nc2nccc(-c3cn(C)c4ccccc34)n2)c(OC)cc1N(C)CCN(C)CCCCNS(=O)(=O)c1ccc(Nc2ncc(Br)c(Nc3cccc(F)c3C(N)=O)n2)cc1` [Compound I-29, 2-[[5-bromo-2-[4-[4-[2-[5-methoxy-N-methyl-4-[[4-(1-methylindol-3-yl)pyrimidin-2-yl]amino]-2-(prop-2-enoylamino)anilino]ethyl-methyl-amino]butylsulfamoyl]anilino]pyrimidin-4-yl]amino]-6-fluoro-benzamide], the results for the Kd in assay [1] and in assay [2] were below 50 nM and 50 to 500 nM, respectively.

As to `C=CC(=O)N[C@@H]1CN(c2nc(Nc3cn(CCOCCOCCOCCOCCON(C)C(=O)N4N=C(c5cc(F)ccc5F)SC4(CCCN)c4ccccc4)nc3OC)c3ncn(C)c3n2)C[C@H]1F` (stereo partly drawn) [Compound I-66], the Kd on EGFR is below 50 nM.

With `C=CC(=O)Nc1cc(Nc2nccc(-c3cn(C)c4ccccc34)n2)c(OC)cc1N(C)CCN(C)CCOCCOCCOCCOCCNC(=O)c1ccc(Nc2ncc3c(n2)N(C2CCCC2)[C@H](CC)C(=O)N3C)c(OC)c1` [Compound I-112, 4-[[(7R)-8-cyclopentyl-7-ethyl-5-methyl-6-oxo-7H-pteridin-2-yl]amino]-3-methoxy-N-[2-[2-[2-1[2-[2-1[2-1[5-methoxy-N-methyl-4-1[[4-(1-methylindol-3-yl)pyrimidin-2-yl]amino]-2-(prop-2-enoylamino)anilino]ethyl-methyl-amino]ethoxy]ethoxy]ethoxy]ethoxy]ethyl]benzamide], the Kd (at EGFR; in assay [2]) was 500 to 2500 nM throughout.

For the compound `C=CC(=O)Nc1cc(Nc2nccc(-c3cn(C)c4ccccc34)n2)c(OC)cc1N(C)CCN(C)CCOCCOCCOCCOCCOCCOCCNC(=O)c1ccc(Nc2ncc3c(n2)N(C2CCCC2)[C@H](CC)C(=O)N3C)c(OC)c1` [Compound I-113, (R)—N-(2-(2-acrylamido-5-methoxy-4-((4-(1-methyl-1H-indol-3-yl)pyrimidin-2-yl)amino)phenyl)-5-methyl-8,11,14,17,20,23-hexaoxa-2,5-diazapentacosan-25-yl)-4-((8-cyclopentyl-7-ethyl-5-methyl-6-oxo-5,6,7,8-tetrahydropteridin-2-yl)amino)-3-methoxybenzamide], the Kd (on EGFR; in assay [2]) was 500 to 2500 nM each time. Further, the GI50 in the assay with HEK293 cells (Homo sapiens, 72 h) fell in the range of 1500 to 5000 nM.

Regarding `C=CC(=O)N[C@@H]1CN(c2nc(Nc3cn(CCOCCOCCOc4ccc(CNc5cc(N6CCCC[C@H]6CCO)nc6c(CC)cnn56)cn4)nc3OC)c3ncn(C)c3n2)C[C@H]1F` [Compound I-144, N-[(3R,4R)-1-[6-[[1-[2-[2-[2-[[5-1[[[3-ethyl-5-[(2S)-2-(2-hydroxyethyl)-1-piperidyl]pyrazolo[1,5-a]pyrimidin-7-yl]amino]methyl]-2-pyridyl]oxy]ethoxy]ethoxy]ethyl]-3-methoxy-pyrazol-4-yl]amino]-9-methyl-purin-2-yl]-4-fluoro-pyrrolidin-3-yl]prop-2-enamide], the GI50 in the assay on HEK293 cells and in the assay on HeLa cells was below 500 nM throughout.

Take `C=CC(=O)N[C@@H]1CN(c2nc(Nc3cn(CCOCCOCCOCCOCCOc4ccc(CNc5cc(N6CCCC[C@H]6CCO)nc6c(CC)cnn56)cn4)nc3OC)c3ncn(C)c3n2)C[C@H]1F` [Compound I-145, N-[(3R,4R)-1-[6-[[1-[2-[2-[2-[2-[2-[[5-[[[3-ethyl-5-[(2S)-2-(2-hydroxyethyl)-1-piperidyl]pyrazolo[1,5-a]pyrimidin-7-yl]amino]methyl]-2-pyridyl]oxy]ethoxy]ethoxy]ethoxy]ethoxy]ethyl]-3-methoxy-pyrazol-4-yl]amino]-9-methyl-purin-2-yl]-4-fluoro-pyrrolidin-3-yl]prop-2-enamide]: the GI50 is below 500 nM with HEK293 cells (Homo sapiens, 72 h) and below 500 nM with HeLa cells (Homo sapiens, 72 h).

For the compound `C=CC(=O)N[C@@H]1CN(c2nc(Nc3cn(CCCN4CCN(CCCOc5ccc(CNc6cc(N7CCCC[C@H]7CCO)nc7c(CC)cnn67)cn5)CC4)nc3OC)c3ncn(C)c3n2)C[C@H]1F` [Compound I-147, N-[(3R,4R)-1-[6-[[1-[3-[4-[3-[[5-[[[3-ethyl-5-[(2S)-2-(2-hydroxyethyl)-1-piperidyl]pyrazolo[1,5-a]pyrimidin-7-yl]amino]methyl]-2-pyridyl]oxy]propyl]piperazin-1-yl]propyl]-3-methoxy-pyrazol-4-yl]amino]-9-methyl-purin-2-yl]-4-fluoro-pyrrolidin-3-yl]prop-2-enamide], the GI50 is below 500 nM with HEK293 cells (Homo sapiens, 72 h) and 500 to 1500 nM in the assay with HeLa cells (Homo sapiens, 72 h).

Consider `C=CC(=O)N[C@@H]1CN(c2nc(Nc3cn(CCCCCCCCNS(=O)(=O)c4ccc(Nc5ncc(Br)c(Nc6cccc(F)c6C(N)=O)n5)cc4)nc3OC)c3ncn(C)c3n2)C[C@H]1F` [Compound I-148, 2-[[5-bromo-2-[4-[8-[4-[[2-[(3R,4R)-3-fluoro-4-(prop-2-enoylamino)pyrrolidin-1-yl]-9-methyl-purin-6-yl]amino]-3-methoxy-pyrazol-1-yl]octylsulfamoyl]anilino]pyrimidin-4-yl]amino]-6-fluoro-benzamide], for which the GI50 was below 500 nM in the assay with HEK293 cells (Homo sapiens, 72 h) and below 500 nM in the assay on HeLa cells (Homo sapiens, 72 h).

Regarding `CC[C@@H]1C(=O)N(C)c2cnc(Nc3ccc(C(=O)NCCCN4CCN(CCCN(C)C/C=C/C(=O)Nc5cc(Nc6nccc(-c7cn(C)c8ccccc78)n6)c(OC)cc5N(C)CCN(C)C)CC4)cc3OC)nc2N1C1CCCC1` [Compound I-151, 4-[[(7R)-8-cyclopentyl-7-ethyl-5-methyl-6-oxo-7H-pteridin-2-yl]amino]-N-[3-[4-[3-[[(E)-4-[2-[2-(dimethylamino)ethyl-methyl-amino]-4-methoxy-5-[[4-(1-methylindol-3-yl)pyrimidin-2-yl]amino]anilino]-4-oxo-but-2-enyl]-methyl-amino]propyl]piperazin-1-yl]propyl]-3-methoxy-benzamide], the concentration for 50% growth inhibition (GI50) is 500 to 1500 nM in the assay with HEK293 cells (Homo sapiens, 72 h) and below 500 nM in the assay with HeLa cells (Homo sapiens, 72 h).

As a reminder, the Kd is the equilibrium constant for the complex coming apart. Broadly, the GI50 is the concentration at which growth is held to half of that of the control.
